Reference: ChEMBL document CHEMBL1145379 (J Med Chem, 2007)

Key:
[1] = Cmax in Beagle dog at 10 mg/kg, po; assay type: ADME, organism-based, Canis lupus familiaris; set-up: dose 10 mg/kg, route oral; conditions: in vivo
[2] = test system: Plasma; assay: Anticoagulant potency in human plasma assessed as concentration for doubling of prothrombin time; assay type: functional
[3] = test system: Canis familiaris; assay: Ex vivo anticoagulant potency in dog assessed as prolongation of prothrombin time at 10 mg/kg, po after 2 hrs; assay type: functional, Canis lupus familiaris
[4] = Inhibition of human chymotrypsin
[5] = Inhibition of dog F10a; set-up: species or system Canis lupus familiaris
[6] = molecular target: Plasminogen (Homo sapiens, UniProt P00747); assay: Inhibition of human plasmin
Chain of Plasminogen (P00747 97-580 limits assumed): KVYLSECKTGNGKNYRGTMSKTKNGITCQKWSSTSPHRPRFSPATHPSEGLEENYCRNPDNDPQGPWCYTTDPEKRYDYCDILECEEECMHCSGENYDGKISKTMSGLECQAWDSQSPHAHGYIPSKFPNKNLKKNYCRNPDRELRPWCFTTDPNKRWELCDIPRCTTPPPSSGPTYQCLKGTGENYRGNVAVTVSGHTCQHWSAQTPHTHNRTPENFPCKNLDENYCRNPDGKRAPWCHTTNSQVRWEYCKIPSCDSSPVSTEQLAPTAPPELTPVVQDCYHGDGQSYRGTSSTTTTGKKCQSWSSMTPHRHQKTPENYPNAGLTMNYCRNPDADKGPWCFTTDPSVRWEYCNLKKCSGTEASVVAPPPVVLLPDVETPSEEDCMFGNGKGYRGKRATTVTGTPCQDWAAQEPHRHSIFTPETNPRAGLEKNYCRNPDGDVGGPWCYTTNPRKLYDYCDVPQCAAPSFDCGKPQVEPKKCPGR
Chain of Plasminogen (P00747 581-810 limits assumed): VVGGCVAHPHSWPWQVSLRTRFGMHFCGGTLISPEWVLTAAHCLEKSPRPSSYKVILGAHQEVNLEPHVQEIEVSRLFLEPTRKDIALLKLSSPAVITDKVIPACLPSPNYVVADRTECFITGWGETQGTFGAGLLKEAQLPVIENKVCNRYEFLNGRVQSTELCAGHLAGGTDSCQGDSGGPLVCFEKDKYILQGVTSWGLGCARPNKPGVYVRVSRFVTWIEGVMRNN

[7] = test system: Canis familiaris; assay: Ex vivo anticoagulant potency in dog assessed as prolongation of prothrombin time at 10 mg/kg, po after 6 hrs; assay type: functional, Canis lupus familiaris
[8] = molecular target: Prothrombin (Homo sapiens, UniProt P00734); assay: Inhibition of human F2a; conditions: read-out: Ki app
[9] = Clearance in Beagle dog at 1 mg/kg, iv; assay type: ADME, organism-based, Canis lupus familiaris; set-up: dose 1 mg/kg, route intravenous; conditions: in vivo
[10] = Volume of distribution at steady state in Beagle dog at 1 mg/kg, iv; assay type: ADME, organism-based, Canis lupus familiaris; set-up: dose 1 mg/kg, route intravenous; conditions: in vivo, read-out: Vss
[11] = molecular target: Tissue-type plasminogen activator (Homo sapiens, UniProt P00750); assay: Inhibition of human tPA
Chain of Tissue-type plasminogen activator (P00750 whole entry): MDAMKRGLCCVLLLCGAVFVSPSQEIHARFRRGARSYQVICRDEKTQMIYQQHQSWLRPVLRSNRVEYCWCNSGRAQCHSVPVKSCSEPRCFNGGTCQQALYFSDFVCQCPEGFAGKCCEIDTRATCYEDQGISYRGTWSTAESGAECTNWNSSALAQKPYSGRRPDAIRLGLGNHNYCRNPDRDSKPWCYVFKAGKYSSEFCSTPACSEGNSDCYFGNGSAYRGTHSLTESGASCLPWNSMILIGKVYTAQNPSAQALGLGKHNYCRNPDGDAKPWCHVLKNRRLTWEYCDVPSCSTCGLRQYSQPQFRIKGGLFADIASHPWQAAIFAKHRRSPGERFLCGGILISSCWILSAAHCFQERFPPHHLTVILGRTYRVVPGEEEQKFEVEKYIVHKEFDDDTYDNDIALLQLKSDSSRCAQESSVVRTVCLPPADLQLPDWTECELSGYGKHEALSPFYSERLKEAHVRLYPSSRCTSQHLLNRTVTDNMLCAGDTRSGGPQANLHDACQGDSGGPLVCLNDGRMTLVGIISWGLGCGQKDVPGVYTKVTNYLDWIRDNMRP

[12] = molecular target: T1, Cathepsin G (Homo sapiens, UniProt P08311); assay: Inhibition of human cathepsin G
T1 sequence (P08311 whole entry): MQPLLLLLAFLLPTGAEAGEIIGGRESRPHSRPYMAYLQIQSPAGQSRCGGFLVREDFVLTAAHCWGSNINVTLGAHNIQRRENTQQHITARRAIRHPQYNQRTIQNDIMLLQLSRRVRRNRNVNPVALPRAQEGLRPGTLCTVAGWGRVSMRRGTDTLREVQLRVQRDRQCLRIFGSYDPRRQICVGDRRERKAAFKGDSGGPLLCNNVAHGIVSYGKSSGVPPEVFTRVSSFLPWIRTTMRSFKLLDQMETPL

[13] = molecular target: Coagulation factor X (Homo sapiens, UniProt P00742); assay: Inhibition of human F10a; conditions: read-out: Ki app
Chain of Coagulation factor X (Homo sapiens, UniProt P00742) (P00742 41-179 limits assumed): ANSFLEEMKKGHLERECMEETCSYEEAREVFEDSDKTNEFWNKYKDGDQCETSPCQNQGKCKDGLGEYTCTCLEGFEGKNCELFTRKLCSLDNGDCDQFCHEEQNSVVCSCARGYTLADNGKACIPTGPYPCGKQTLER
Chain of Coagulation factor X (Homo sapiens, UniProt P00742) (P00742 235-488 limits assumed): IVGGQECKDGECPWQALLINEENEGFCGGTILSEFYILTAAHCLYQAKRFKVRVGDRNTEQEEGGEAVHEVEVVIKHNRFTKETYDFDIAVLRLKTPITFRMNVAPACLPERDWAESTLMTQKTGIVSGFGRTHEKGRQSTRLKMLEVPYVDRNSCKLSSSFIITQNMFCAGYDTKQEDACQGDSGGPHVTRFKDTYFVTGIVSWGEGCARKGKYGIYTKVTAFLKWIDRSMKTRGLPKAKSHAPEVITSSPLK

[14] = test system: Canis familiaris; assay: Ex vivo anticoagulant potency in dog assessed as prolongation of prothrombin time at 10 mg/kg, po after 1 hr; assay type: functional, Canis lupus familiaris
[15] = Bioavailability in Beagle dog at 10 mg/kg, po normalized to 1 mg/kg, iv; assay type: ADME, organism-based, Canis lupus familiaris; conditions: in vivo
[16] = molecular target: Urokinase-type plasminogen activator (Homo sapiens, UniProt P00749); assay: Inhibition of human urokinase
[17] = Half life in Beagle dog at 1 mg/kg, iv; assay type: ADME, organism-based, Canis lupus familiaris; set-up: dose 1 mg/kg, route intravenous; conditions: in vivo
[18] = molecular target: Coagulation factor XI (Homo sapiens, UniProt P03951); assay: Inhibition of human F11a
Chain of Coagulation factor XI (P03951 19-387 limits assumed): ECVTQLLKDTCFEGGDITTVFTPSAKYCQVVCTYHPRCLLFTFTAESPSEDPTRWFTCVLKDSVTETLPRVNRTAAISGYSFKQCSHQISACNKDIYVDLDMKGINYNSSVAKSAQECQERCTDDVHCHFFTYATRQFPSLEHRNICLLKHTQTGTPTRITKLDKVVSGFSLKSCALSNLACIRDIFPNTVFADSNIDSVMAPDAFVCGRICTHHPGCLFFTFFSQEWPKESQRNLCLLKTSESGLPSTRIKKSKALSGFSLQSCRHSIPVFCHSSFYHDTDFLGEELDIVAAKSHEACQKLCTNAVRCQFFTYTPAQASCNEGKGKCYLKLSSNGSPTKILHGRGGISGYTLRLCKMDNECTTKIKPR
Chain of Coagulation factor XI (P03951 388-625 limits assumed): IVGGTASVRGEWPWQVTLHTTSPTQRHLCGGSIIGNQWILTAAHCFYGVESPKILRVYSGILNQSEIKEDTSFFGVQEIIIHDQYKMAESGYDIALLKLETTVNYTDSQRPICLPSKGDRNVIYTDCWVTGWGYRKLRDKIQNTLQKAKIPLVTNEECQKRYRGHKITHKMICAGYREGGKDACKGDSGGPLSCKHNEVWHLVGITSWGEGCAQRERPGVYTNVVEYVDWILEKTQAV

[19] = molecular target: T2, Neutrophil elastase (Homo sapiens, UniProt P08246); assay: Inhibition of human neutrophil elastase
T2 sequence (P08246 whole entry): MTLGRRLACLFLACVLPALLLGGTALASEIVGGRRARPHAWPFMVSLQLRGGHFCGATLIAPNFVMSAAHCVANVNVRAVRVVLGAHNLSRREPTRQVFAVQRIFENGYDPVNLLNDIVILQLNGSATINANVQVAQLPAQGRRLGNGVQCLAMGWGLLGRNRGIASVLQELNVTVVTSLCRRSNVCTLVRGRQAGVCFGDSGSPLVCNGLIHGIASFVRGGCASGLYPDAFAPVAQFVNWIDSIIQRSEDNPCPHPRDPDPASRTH

[20] = test system: Plasma; assay: Anticoagulant potency in dog plasma assessed as concentration for doubling of prothrombin time; assay type: functional, Canis lupus familiaris
[21] = molecular target: Plasma kallikrein (Homo sapiens, UniProt P03952); assay: Inhibition of human kallikrein
Chain of Plasma kallikrein (P03952 20-390 limits assumed): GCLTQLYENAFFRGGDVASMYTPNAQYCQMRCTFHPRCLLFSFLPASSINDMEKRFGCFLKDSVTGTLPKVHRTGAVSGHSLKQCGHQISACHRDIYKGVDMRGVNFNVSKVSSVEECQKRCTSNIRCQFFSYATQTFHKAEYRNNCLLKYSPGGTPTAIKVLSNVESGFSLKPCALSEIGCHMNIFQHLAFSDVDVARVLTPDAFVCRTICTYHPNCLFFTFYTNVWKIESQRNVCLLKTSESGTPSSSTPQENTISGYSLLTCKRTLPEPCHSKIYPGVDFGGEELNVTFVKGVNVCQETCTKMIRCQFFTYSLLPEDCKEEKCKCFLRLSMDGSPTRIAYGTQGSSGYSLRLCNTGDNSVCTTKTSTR
Chain of Plasma kallikrein (P03952 391-638 limits assumed): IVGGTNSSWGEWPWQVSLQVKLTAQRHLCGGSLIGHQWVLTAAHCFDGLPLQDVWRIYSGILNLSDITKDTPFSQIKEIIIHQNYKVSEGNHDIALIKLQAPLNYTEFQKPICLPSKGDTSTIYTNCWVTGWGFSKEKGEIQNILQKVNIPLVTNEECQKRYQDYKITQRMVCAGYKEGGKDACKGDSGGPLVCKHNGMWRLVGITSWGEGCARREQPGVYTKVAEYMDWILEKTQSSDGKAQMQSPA

[22] = molecular target: Coagulation factor X (Rattus norvegicus, UniProt Q63207); assay: Inhibition of rat F10a
Chain of Coagulation factor X (Rattus norvegicus, UniProt Q63207) (Q63207 41-180 limits assumed): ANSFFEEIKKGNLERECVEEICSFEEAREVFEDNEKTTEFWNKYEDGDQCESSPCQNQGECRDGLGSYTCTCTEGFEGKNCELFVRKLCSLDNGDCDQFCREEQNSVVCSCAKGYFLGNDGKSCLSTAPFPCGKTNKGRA
Chain of Coagulation factor X (Rattus norvegicus, UniProt Q63207) (Q63207 232-482 limits assumed): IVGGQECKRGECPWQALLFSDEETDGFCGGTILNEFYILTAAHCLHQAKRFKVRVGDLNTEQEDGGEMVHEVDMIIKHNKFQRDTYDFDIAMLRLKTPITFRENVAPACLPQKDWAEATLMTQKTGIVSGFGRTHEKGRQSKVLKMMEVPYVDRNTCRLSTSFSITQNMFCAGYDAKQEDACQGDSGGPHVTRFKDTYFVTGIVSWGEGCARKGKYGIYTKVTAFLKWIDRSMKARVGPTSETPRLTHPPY

[23] = molecular target: Trypsin (Homo sapiens, UniProt P07477+P07478+P35030); assay: Inhibition of human trypsin; assay type: protein assay
[24] = test system: Plasma; assay: Anticoagulant potency in rat plasma assessed as concentration for doubling of prothrombin time; assay type: functional
[25] = test system: Rattus norvegicus; assay: Inhibition of thrombosis in iv dosed Wistar rat vena cava stasis model; assay type: functional, organism-based
[26] = Distribution coefficient, log D at pH 7.4; assay type: physicochemical; conditions: octanol/water

Row | SMILES | Cmax [1] | Activity [2] | Ki [8] | clearance [9] | Vd [10] | Ki [13] | bioavailability [15] | half-life [17] | also measured
1 | COc1cc(Cl)cc(C(=O)Nc2ccc(Cl)cn2)c1NC(=O)c1scc(CN(C)C2=NCCO2)c1Cl | 1900 ng/mL | 0.36 µM | 90 nM | 5.8 mL/min/kg | 1.6 L/kg | 0.007 nM | 56% | 3.2 h | Fold change [3]: 5; Ki [4]: > 10000 nM; Ki [5]: 0.15 nM; Ki [6]: > 10000 nM; Fold change [7]: 4; Ki [11]: > 5000 nM; Ki [12]: > 10000 nM; Fold change [14]: 3.2; Ki [16]: > 5000 nM; Ki [18]: > 10000 nM; Ki [19]: > 10000 nM; Activity [20]: 0.35 µM; Ki [21]: 37 nM; Ki [22]: 0.29 nM; Ki [23]: > 10000 nM; Activity [24]: 93 µM
2 | CNc1nccn1Cc1csc(C(=O)Nc2c(OC)cc(Cl)cc2C(=O)Nc2ccc(Cl)cn2)c1Cl | 3700 ng/mL | 1.2 µM | 990 nM | 4.4 mL/min/kg | 1 L/kg | – | 98% | 3.4 h | Ki [4]: > 5000 nM; Ki [5]: 0.31 nM; Ki [6]: > 5000 nM; Ki [11]: > 5000 nM; Ki [12]: > 5000 nM; Activity [25]: Dose-dependent effect; Ki [16]: > 5000 nM; Ki [18]: > 5000 nM; Ki [19]: > 5000 nM; Activity [20]: 4.2 µM; Ki [21]: 45 nM; Ki [22]: 0.06 nM; Ki [23]: > 5000 nM; Activity [24]: 2.56 µM
3 | CN1CCN(Cc2csc(C(=O)Nc3ccc(Cl)cc3C(=O)Nc3ccc(Cl)cc3)c2Cl)CC1 | – | 12 µM | 840 nM | – | – | 0.76 nM | – | – | logD [26]: 2.96
4 | CNCc1csc(C(=O)Nc2c(OC)cc(Cl)cc2C(=O)Nc2ccc(Cl)cn2)c1Cl | 5100 ng/mL | 1.6 µM | 3700 nM | 1.6 mL/min/kg | 1.4 L/kg | 0.21 nM | 75% | 10.5 h | Ki [4]: > 10000 nM; Ki [5]: 1.7 nM; Ki [6]: > 10000 nM; Ki [11]: > 5000 nM; Ki [12]: > 10000 nM; Activity [25]: Dose-dependent effect; Ki [16]: > 5000 nM; Ki [18]: > 10000 nM; Ki [19]: 10000 nM; Activity [20]: 4.35 µM; Ki [21]: 1000 nM; Ki [22]: 2.5 nM; Ki [23]: > 10000 nM; Activity [24]: 7.3 µM
5 | CN1CCN(Cc2csc(C(=O)Nc3ccc(Cl)cc3C(=O)Nc3ccc(Cl)cn3)c2Cl)CC1 | – | 6.9 µM | 680 nM | – | – | 0.36 nM | – | – | logD [26]: 3.11
6 | COc1cc(Cl)cc(C(=O)Nc2ccc(Cl)cn2)c1NC(=O)c1scc(CN(C)CCO)c1Cl | 1200 ng/mL | 1.6 µM | 1400 nM | 27 mL/min/kg | 4.4 L/kg | 0.24 nM | > 100% | 2.1 h | –
7 | COc1cc(Cl)cc(C(=O)Nc2ccc(Cl)cn2)c1NC(=O)c1scc(CN2CCN(C)CC2)c1Cl | – | 1.6 µM | 1500 nM | – | – | 0.16 nM | – | – | logD [26]: 2.75
8 | COc1cc(Cl)cc(C(=O)Nc2ccc(Cl)cn2)c1NC(=O)c1scc(CN(C)c2ncco2)c1Cl | – | 4.2 µM | 60 nM | – | – | 0.059 nM | – | – | –
9 | COc1cc(Cl)cc(C(=O)Nc2ccc(Cl)cn2)c1NC(=O)c1scc(CN(C)CC(C)(C)O)c1Cl | – | 5.3 µM | 1100 nM | – | – | 0.71 nM | – | – | –
10 | COc1cc(Cl)cc(C(=O)Nc2ccc(Cl)cn2)c1NC(=O)c1scc(CN(C)CC(C)O)c1Cl (centres undefined) | – | 1.5 µM | 2100 nM | – | – | 0.4 nM | – | – | –
11 | COc1cc(Cl)cc(C(=O)Nc2ccc(Cl)cn2)c1NC(=O)c1scc(CN2C=NCC2)c1Cl | – | 0.26 µM | 3300 nM | – | – | 0.004 nM | – | – | –
